A word on the melting point: it is the temperature of the solid-liquid transition.

As to `Nc1nc2c(s1)CN(C(=S)NC(=O)c1ccccc1)CC2`, the melting point lay in the range of 158 to 160 °C. As for `O=C1N(Cc2ccc(F)cn2)c2ccccc2C12COc1cc3c(cc12)OCCO3` (centres undefined), the melting point lay in the range of 174 to 176 °C. Compound `COc1ccc(N2C(=O)N(c3cccc(C#N)c3)c3nc(Nc4ccccc4)ncc3C2C)cc1` (centres undefined) registered a melting point of 224 to 228 °C. `CCOc1ccc(C=O)c(Oc2ccc(Cl)cc2Cl)n1` yielded a melting point of 95 to 96 °C. The figure for `CC12CCC3c4ccc(O)cc4CC(CCCCCO)C3C1C=CC2=O` (centres undefined) is 194 to 196 °C; for `CC(=O)NC(CSC(=O)C(C)C)C(=O)NCCSC(C)=O` (centres undefined) it is 116 to 118 °C. `O=C(Nc1ccc(CCc2ccc(O)c(O)c2)cc1)C(=O)c1sc2ccccc2c1O` returned a melting point of 193 to 195 °C.

As for `CCCc1c(OCCCOc2cccc3c2CCCC3)ccc2c1OC(CCC(=O)O)(CCC(=O)OCC)CC2=O` (centres undefined), the melting point lay within 83.5 to 84.5 °C. Turning to `COC(=O)c1nc(N(C)Cc2ccccc2)ccc1Oc1nc(OC)cc(OC)n1`, the melting point lay within 73 to 75 °C. The figure for `CC(C)c1nn(-c2ccc(C(F)(F)F)cn2)cc1CCCCOc1cccc(OC(C)(C)C(=O)O)c1` is 81 to 82 °C; for `CC(C)(C)OC(=O)NNc1ccc(NC(=O)OC(C)(C)C)cc1` it is 155 °C. For `CCOc1ccccc1NC=C1C(=O)N(c2ccc(S(=O)(=O)N(CC)CC)cc2)N=C1C`, the melting point was found to be 170 °C. As for `Cc1ccccc1C1SC2(CCN(CCCC(=O)c3ccc(F)cc3)CC2)c2ccccc21` (centres undefined), the melting point lay in the range of 143 to 145 °C. The figure for `O=C(CCl)N1CCC(c2noc3cc(F)ccc23)CC1` is 101 to 102 °C.

Take `Cc1c(Cl)ccc(S(=O)(=O)N(CCc2ccccc2)CC(=O)NCC(=O)O)c1Cl`: the melting point was 110 °C. `O=C(O)CN(CC(=O)O)C(=O)c1cc(OCCCCCCOc2ccc(-c3ccccc3)cc2)ccc1OCc1ccccc1`: the melting point was 98 to 100 °C. The figure for `Cc1ccc(C2SCC(=O)CS2)cc1` is 112 to 113 °C. With `CCc1nn(C(=O)Oc2ccccc2)c(=O)n1C` the figure was 141 °C; with `O=C(CC12CC3CC(CC(C3)C1)C2)Nc1cc(O)ccc1Cl`, 224 to 225 °C; with `COc1c(O)c(C=O)cc2c1OCC2`, 71 to 72 °C. On to `NC(=NCC(F)(F)F)Nc1ccnc(SCCCNC=O)n1`, for which the melting point is 165 to 166 °C. For `Cc1oc(-c2ccccc2)nc1COc1ccc(COc2nn(-c3ccccc3)cc2CC(=O)O)cn1`, the melting point fell in the range of 164 to 165 °C. In turn, `CC(=O)Nc1ncc(C(C)=O)cc1C` registered a melting point of 115 to 116 °C. Compound `COc1cc(NC(=S)NC2CCCCC2)ccc1NNC=O` displayed a melting point of 131 to 133 °C. In the case of `Cc1nnc(-c2ccc3occ(-c4cccnc4)c3c2)o1`, the melting point is 139 to 140 °C.

As to `CC(C)(CCCCCCC(C)(C)CCC(=O)O)CCC(=O)O`, the melting point is 88 to 89 °C. `Cc1ccnc(-c2cccnc2)c1OC1SCC(O)C(O)C1O` (centres undefined) gave a melting point of 98 °C. With `CC(C)N=C(NC#N)Nc1cc(Cl)cc(Cl)c1` the figure was 156 to 158 °C; with `Cc1cc(C)c2nc(NCCCN3CCOCC3)n(Cc3nc(C)ccc3O)c2c1`, 228 °C; with `CCOC(=O)c1cnn2c1c(O)nc1c(C)nn(C)c12`, 246 to 247 °C. As for `COc1cccc(NN=C(Cl)C(C)=O)c1`, the melting point fell in the range of 117 to 119 °C.

The compound `Nc1nc(NC2CCCCCCC2)c2ncn(C3C=CC(CO)C3)c2n1` (centres undefined) came in with a melting point of 171 to 173 °C. `CCOC(=O)Cc1cnc(NC(C)C)nc1Cl` came in with a melting point of 67 to 71 °C. With `CSC(Nc1cc(Cl)cc(Cl)c1)=C(C#N)S(=O)(=O)c1ccc(Cl)cc1`, the melting point lay within 128 to 131 °C.

For the compound `CC(C)(C)OC(=O)N1CCC2(CC1)NC(=O)N(CC(O)CO)C2=O` (centres undefined), the melting point lay in the range of 167 to 170 °C.

`N#Cc1cccc(S(=O)(=O)n2c(=O)[nH]c3cc(Cl)ccc3c2=O)c1` had a melting point of 225 to 226 °C. With `COc1ccc(S(=O)(=O)Nc2cccnc2Nc2ccc(OC(=O)C(C)(C)C)cc2)cc1` the figure was 188 to 189 °C; with `CN1CCN(C(=O)[C@H](CC(N)=O)Nc2ccc(OCc3ccccc3)cc2OCc2ccccc2)CC1`, 83 to 85 °C; with `CCCCOc1ccc(-c2ccc3c(c2)C=C(C(=O)Nc2ccc(CN(C)C4CCOCC4)cc2)CCS3(=O)=O)cc1`, 233 to 236 °C.

`COc1cc2c(cc1OC)NC(C)C(=O)N2` (centres undefined) came in with a melting point of 151 °C. In the case of `CCCCn1c(C(=O)c2cc(C)cc(CCC#N)c2)c(C(C)C)c(=O)[nH]c1=O`, the melting point is 172 to 173 °C. With `NC(=O)CN1C(=O)[C@@H](N)[C@H](c2ccccc2)Sc2ccccc21` (relative stereo) the figure was 196 to 200 °C; with `CCNc1cc(NS(=O)(=O)c2ccc(N)cc2)nc(N)n1`, 272 to 274 °C. With `COC(=O)C(C)(C)CCCOc1c(C)cc(OC(=O)C(C)(C)C)c(C)c1C`, the melting point was in the range of 46 to 47 °C. The compound `O=C1Nc2ccccc2SC1CCCO` (centres undefined) came in with a melting point of 59 to 60 °C. Compound `CCOC(=O)c1cc(OC)c2oc(C)c(C)c2c1` had a melting point of 67 to 68 °C. Turning to `CC1COc2c(F)c(F)c(N)c3c(=O)[nH]c(=O)n1c23` (centres undefined), the melting point was above 280 °C. On to `CC(C)(C)C(NC(=O)CCc1cccnc1)Nc1c(Nc2cccnc2Cl)c(=O)c1=O` (centres undefined), for which the melting point lay within 179 to 180 °C. Compound `O=c1[nH]c2c([nH]c1=O)C(N1CCOCC1)c1ccccc1-2` (centres undefined) returned a melting point of 265 to 267 °C. With `COCCc1cnc(Cl)nc1` the figure was 25 to 26 °C. `COc1ccc(OC)c(Cc2cccc(N)c2)c1` showed a melting point of 81 to 84 °C.

Turning to `COc1ccc(-c2cc(=Nc3c(C)cc(C)cc3C)n(C)c(=O)n2C)cc1OC`, the melting point was in the range of 68 to 70 °C.

As to `Fc1cccc(C(c2ccnc3ccccc23)n2ccnc2)c1` (centres undefined), the melting point was found to be 140 °C. The figure for `CCCCc1c(C(=O)C(Cl)(Cl)Cl)c2ccccc2n1C` is 112 to 115 °C.

In turn, `O=C(O)c1cn2c3c(cc(Cl)cc3c1=O)CCC2` came in with a melting point of 282 to 286 °C. Take `C[C@]1(CN2CCN(C(=O)COc3ccc(Cl)cc3)CC2)Cn2cc([N+](=O)[O-])nc2O1`: the melting point fell in the range of 179 to 180 °C. With `CC(C)(C)OC(=O)NCCc1cccc(C(=O)c2cc(Cl)ccc2N)c1` the figure was 128 to 129 °C. `CS(=O)(=O)c1snc(OCC#CI)c1C#N` showed a melting point of 191 to 192 °C. Regarding `COc1ccc2cccc(C(=O)C(N)=O)c2c1`, the melting point amounted to 112 °C.

With `CC1(C)N=C(Cl)c2cc(C#N)ccc2O1`, the melting point was in the range of 124 to 126 °C. `COCC(Oc1ccc(-n2nnc3cc(C(F)(F)F)ccc32)cc1)C(=O)O` (centres undefined) showed a melting point of 139 to 142 °C. For the compound `O=C(O)c1ccccc1-n1c(-c2ccccc2)cc2c1-c1ccccc1CC2`, the melting point lay in the range of 170 to 185 °C. Take `CN(C)c1ccc(C=Nn2ccnc2CCc2ccccc2)cc1`: the melting point was in the range of 153 to 154 °C. `FC(F)(F)c1cc(OCc2ccc(-c3ccccc3-c3nnn(C(c4ccccc4)(c4ccccc4)c4ccccc4)n3)cc2)c2c(n1)CCCC2` had a melting point of 141 to 143 °C.

The record behind these values is a melting point compilation (Tetko et al.; mined from patent text by program, amines drawn as free bases though some values may be those of a salt).
